Data as given in patent publication US10421761B2, “Compounds for kinase modulation, and indications therefor” (Plexxikon Inc., priority 2013, dated 2019).

Test system: B9 cells
Details: Repl. 2; B9 cells

## CCCS(=O)(=O)Nc1ccc(F)c(C(=O)c2c[nH]c3ncc(-c4ccc(Cl)cc4)cc23)c1F [vemurafenib]
  probe 1430623_s_at response, Obfc2a (oligonucleotide/oligosaccharide-binding fold containing 2A): 1.88
  probe 1430700_a_at response, Pla2g7 (phospholipase A2, group VII (platelet-activating factor acetylhydrolase, plasma)): 2.18
  probe 1431416_a_at response, Jam2 (junction adhesion molecule 2): 1.93
  probe 1431422_a_at response, Dusp14 (dual specificity phosphatase 14): 1.93
  probe 1431611_a_at response, Cadm1 (cell adhesion molecule 1): 2.31
  probe 1431688_at response, LOC73899 (hypothetical LOC73899): 2.41
  probe 1431691_a_at response, Rab31 (RAB31, member RAS oncogene family): 2.04
  probe 1433909_at response, Syt17 (synaptotagmin XVII): 2.17
  probe 1434059_at response, B230312A22Rik (RIKEN cDNA B230312A22 gene): 2.10
  probe 1434092_at response, Atg9b (ATG9 autophagy related 9 homolog B (S. cerevisiae)): 1.89
  probe 1434109_at response, Sh3bgrl2 (SH3 domain binding glutamic acid-rich protein like 2): 2.33
  probe 1434252_at response, Tmcc3 (transmembrane and coiled coil domains 3): 1.95
  probe 1434601_at response, Amigo2 (adhesion molecule with Ig like domain 2): 1.89
  probe 1434957_at response, Cdon (cell adhesion molecule-related/down-regulated by oncogenes): 0.46
  probe 1435066_at response, Pitpnc1 (phosphatidylinositol transfer protein, cytoplasmic 1): 2.32
  probe 1435176_a_at response, Id2 (inhibitor of DNA binding 2): 0.46
  probe 1435330_at response, Pyhin1 (pyrin and HIN domain family, member 1): 2.38
  probe 1435331_at response, Pyhin1 (pyrin and HIN domain family, member 1): 3.71
  probe 1435460_at response, Prkg2 (protein kinase, cGMP-dependent, type II): 1.96
  probe 1435695_a_at response, Ggct (gamma-glutamyl cyclotransferase): 2.19
  probe 1436100_at response, Sh2d5 (SH2 domain containing 5): 2.35
  probe 1436329_at response, Egr3 (early growth response 3): 2.77
  probe 1436584_at response, Spry2 (sprouty homolog 2 (Drosophila)): 3.54
  probe 1436659_at response, Dclk1 (doublecortin-like kinase 1): 2.37
  probe 1436917_s_at response, Gpsm1 (G-protein signalling modulator 1 (AGS3-like, C. elegans)): 1.89
  probe 1436944_x_at response, Pisd /// Pisd-ps1 ///Pisd-ps3 (phosphatidylserine decarboxylase /// phosphatidylserine decarboxylase, pseudogene 1 /// phosphatidylserine decarboxylase, pseudogene 3): 0.48
  probe 1437092_at response, Clip4 (CAP-GLY domain containing linker protein family, member 4): 2.13
  probe 1437100_x_at response, Pim3 (proviral integration site 3): 2.05
  probe 1437199_at response: 4.31
  probe 1437271_at response, Clcf1 (cardiotrophin-like cytokine factor 1): 1.96
  probe 1437486_at response, Gprc5a (G protein-coupled receptor, family C, group 5, member A): 2.08
  probe 1437982_x_at response, Cox15 (COX15 homolog, cytochrome c oxidase assembly protein (yeast)): 0.45
  probe 1438038_at response, 4930402H24Rik (RIKEN cDNA 4930402H24 gene): 1.93
  probe 1438664_at response, Prkar2b (protein kinase, cAMP dependent regulatory, type II beta): 0.49
  probe 1438699_at response, Srd5a1 (steroid 5 alpha-reductase 1): 1.87
  probe 1439016_x_at response, Sprr2a (small proline-rich protein 2A): 0.42
  probe 1439109_at response, Ccdc68 (coiled-coil domain containing 68): 0.50
  probe 1439434_x_at response, Sh2d5 (SH2 domain containing 5): 1.91
  probe 1439797_at response, Ppard (peroxisome proliferator activator receptor delta): 2.32
  probe 1439878_at response, Ivl (involucrin): 2.90
  probe 1440169_x_at response, Ifnar2 (interferon (alpha and beta) receptor 2): 0.53
  probe 1440559_at response, Hmga2-ps1 (high mobility group AT-hook 2, pseudogene 1): 2.95
  probe 1441315_s_at response, Slc19a2 (solute carrier family 19 (thiamine transporter), member 2): 2.18
  probe 1441917_s_at response, Tmem40 (transmembrane protein 40): 2.11
  probe 1442350_at response: 2.13
  probe 1442363_at response, 1110012J17Rik (RIKEN cDNA 1110012J17 gene): 1.96
  probe 1443536_at response, Slc7a11 (solute carrier family 7 (cationic amino acid transporter, y+ system), member 11): 0.40
  probe 1445758_at response: 0.52
  probe 1446791_at response, Pi15 (peptidase inhibitor 15): 0.48
  probe 1447661_at response: 0.43
  probe 1447845_s_at response, Vnn1 (vanin 1): 0.46
  probe 1448364_at response, Ccng2 (cyclin G2): 2.01
  probe 1448532_at response, Prl8a9 (prolactin family8, subfamily a, member 9): 2.67
  probe 1448562_at response, Upp1 (uridine phosphorylase 1): 2.99
  probe 1448613_at response, Ecm1 (extracellular matrix protein 1): 1.89
  probe 1448617_at response, Cd53 (CD53 antigen): 1.99
  probe 1448810_at response, Gne (glucosamine): 2.16
  probe 1448855_at response, Rassf1 (Ras association (RalGDS/AF-6) domain family member 1): 2.05
  probe 1448894_at response, Akr1b8 (aldo-keto reductase family 1, member B8): 1.99
  probe 1448978_at response, Ngef (neuronal guanine nucleotide exchange factor): 3.24
  probe 1449038_at response, Hsd11b1 (hydroxysteroid 11-beta dehydrogenase 1): 2.51
  probe 1449125_at response, Tnfaip8l1 (tumor necrosis factor, alpha-induced protein 8-like 1): 2.10
  probe 1449133_at response, Sprr1a (small proline-rich protein 1A): 2.78
  probe 1449268_at response, Gfpt1 (glutamine fructose-6-phosphate transaminase 1): 2.36
  probe 1449297_at response, Casp12 (caspase 12): 0.47
  probe 1449334_at response, Timp3 (tissue inhibitor of metalloproteinase 3): 0.42
  probe 1449367_at response, Trex2 (three prime repair exonuclease 2): 4.68
  probe 1449408_at response, Jam2 (junction adhesion molecule 2): 2.08
  probe 1449545_at response, Fgf18 (fibroblast growth factor 18): 3.38
  probe 1449965_at response, Mcpt8 (mast cell protease 8): 2.61
  probe 1450241_a_at response, Evi2a (ecotropic viral integration site 2a): 4.27
  probe 1450262_at response, Clcf1 (cardiotrophin-like cytokine factor 1): 2.12
  probe 1450276_a_at response, Scin (scinderin): 2.63
  probe 1450376_at response, Mxi1 (Max interacting protein 1): 2.00
  probe 1450430_at response, Mrc1 (mannose receptor, C type 1): 2.97
  probe 1450501_at response, Itga2 (integrin alpha 2): 2.48
  probe 1450791_at response, Nppb (natriuretic peptide precursor type B): 4.39
  probe 1450976_at response, Ndrg1 (N-myc downstream regulated gene 1): 2.47
  probe 1451006_at response, Xdh (xanthine dehydrogenase): 0.39
  probe 1451308_at response, Elovl4 (elongation of very long chain fatty acids (FEN1/Elo2, SUR4/Elo3, yeast)-like 4): 2.21
  probe 1451446_at response, Antxr1 (anthrax toxin receptor 1): 0.43
  probe 1451501_a_at response, Ghr (growth hormone receptor): 2.25
  probe 1451529_at response, Sgtb (small glutamine-rich tetratricopeptide repeat (TPR)-containing, beta): 2.47
  probe 1451798_at response, Il1rn (interleukin 1 receptor antagonist): 2.76
  probe 1452058_a_at response, Rnfl1 (ring finger protein 11): 2.02
  probe 1452087_at response, Epsti1 (epithelial stromal interaction 1 (breast)): 2.32
  probe 1452203_at response, Obfc2a (oligonucleotide/oligosaccharide-binding fold containing 2A): 1.90
  probe 1452352_at response, Ctla2b (cytotoxic T lymphocyte-associated protein 2 beta): 2.30
  probe 1452521_a_at response, Plaur (plasminogen activator, urokinase receptor): 2.09
  probe 1453055_at response, Sema6d (sema domain, transmembrane domain (TM), and cytoplasmic domain, (semaphorin) 6D): 4.08
  probe 1453278_a_at response, Clip4 (CAP-GLY domain containing linker protein family, member 4): 1.99
  probe 1453345_at response, Nipal1 (NIPA-like domain containing 1): 3.92
  probe 1454048_a_at response, 4931408A02Rik /// LOC630876 (RIKEN cDNA 4931408A02 gene /// similar to Protein C21orf63 homolog precursor): 0.46
  probe 1454254_s_at response, 1600029D21Rik (RIKEN cDNA 1600029D21 gene): 2.18
  probe 1454649_at response, Srd5a1 (steroid 5 alpha-reductase 1): 2.08
  probe 1454699_at response, LOC100047324 /// Sesn1 (similar to Sesn1 protein /// sestrin 1): 0.37
  probe 1454710_at response, Spink2 (serine peptidase inhibitor, Kazal type 2): 2.03
  probe 1454780_at response, Galntl4 (UDP-N-acetyl-alpha-D-galactosamine:polypeptide N-acetylgalactosaminyltransferase-like 4): 0.44
  probe 1454877_at response, Sertad4 (SERTA domain containing 4): 0.42
  probe 1455104_at response, Mxd1 (MAX dimerization protein 1): 2.85
  probe 1455241_at response, BC037703 (cDNA sequence BC037703): 0.50
  probe 1455299_at response, Vgll3 (vestigial like 3 (Drosophila)): 0.44
  probe 1455981_at response, Gm11263 /// Gm12242 /// Gm13654 /// Gm14138 /// Gm16406 /// Gm4796 /// Gm6476 /// Gm9143 /// LOC100043734 /// LOC236932 /// LOC623245 /// LOC639593 /// Rps6: 0.46
  probe 1456150_at response, Jhdm1d (jumonji C domain-containing histone demethylase 1 homolog D (S. cerevisiae)): 1.99
  probe 1456174_x_at response, Ndrg1 (N-myc downstream regulated gene 1): 2.00
  probe 1456248_at response, Lce3f /// LOC630971 (late cornified envelope 3F /// hypothetical protein LOC630971): 2.45
  probe 1456284_at response, Tmem171 (transmembrane protein 171): 1.95
  probe 1456321_at response, Nipal1 (NIPA-like domain containing 1): 2.99
  probe 1456725_x_at response, Ezr (ezrin): 0.49
  probe 1456874_at response, Flrt2 (fibronectin leucine rich transmembrane protein 2): 0.54
  probe 1457042_at response, AI256396 (EST AI256396): 0.52
  probe 1457568_at response, Hnrnpd (heterogeneous nuclear ribonucleoprotein D): 0.50
  probe 1457666_s_at response, Ifi202b (interferon activated gene 202B): 3.89
  probe 1460220_a_at response, Csf1 (colony stimulating factor 1 (macrophage)): 0.38
  probe 1460302_at response, Thbs1 (thrombospondin 1): 0.50
  probe 1460472_at response, Cdk3 (cyclin-dependent kinase 3): 1.99
  probe 1460521_a_at response, Obfc2a (oligonucleotide/oligosaccharide-binding fold containing 2A): 2.32
  probe 1460695_a_at response, 2010111I01Rik (RIKEN cDNA 2010111I01 gene): 0.48
